Source: patent US10155749B2, “Substituted benzimidazolium compounds useful in the treatment of respiratory diseases” (Boehringer Ingelheim International GmbH, priority 2015, dated 2018)

target: T1, ENaC (Epithelial Sodium Channel) (Mus musculus, UniProt Q61180+Q9WU38+Q9WU39); assay: Ussing Chamber assay (short circuit current, amiloride sensitive I_SC) in M-1 cells; format: cell-based; conditions: Mouse kidney M-1 cells, apical application, 37° C.
T1 construct: Mouse kidney M-1 cells were cultivated in DMEM containing 5% FCS and 5 μM dexamethasone; endogenous in cells; host or cells: Mouse kidney M-1 cells
T1 sequence (Q61180 1-699): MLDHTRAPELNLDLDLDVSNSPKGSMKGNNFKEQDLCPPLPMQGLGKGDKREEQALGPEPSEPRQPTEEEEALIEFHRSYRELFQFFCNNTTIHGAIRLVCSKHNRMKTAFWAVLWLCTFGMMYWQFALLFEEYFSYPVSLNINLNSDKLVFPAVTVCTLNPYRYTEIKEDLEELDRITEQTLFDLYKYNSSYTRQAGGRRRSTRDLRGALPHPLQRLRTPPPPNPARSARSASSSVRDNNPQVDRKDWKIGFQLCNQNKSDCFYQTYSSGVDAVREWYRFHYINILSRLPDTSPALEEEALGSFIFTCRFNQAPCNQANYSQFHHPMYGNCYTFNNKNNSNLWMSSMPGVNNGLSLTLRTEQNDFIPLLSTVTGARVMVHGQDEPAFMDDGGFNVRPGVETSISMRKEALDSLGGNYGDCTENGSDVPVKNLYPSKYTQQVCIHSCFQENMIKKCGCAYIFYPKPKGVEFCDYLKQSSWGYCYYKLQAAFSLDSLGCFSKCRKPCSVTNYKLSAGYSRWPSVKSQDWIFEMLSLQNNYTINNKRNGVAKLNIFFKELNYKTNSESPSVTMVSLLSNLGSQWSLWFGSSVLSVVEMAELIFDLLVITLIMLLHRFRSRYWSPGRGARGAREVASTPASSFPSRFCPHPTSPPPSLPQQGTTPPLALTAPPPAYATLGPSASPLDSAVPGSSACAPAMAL
T1 sequence (Q9WU38 1-638): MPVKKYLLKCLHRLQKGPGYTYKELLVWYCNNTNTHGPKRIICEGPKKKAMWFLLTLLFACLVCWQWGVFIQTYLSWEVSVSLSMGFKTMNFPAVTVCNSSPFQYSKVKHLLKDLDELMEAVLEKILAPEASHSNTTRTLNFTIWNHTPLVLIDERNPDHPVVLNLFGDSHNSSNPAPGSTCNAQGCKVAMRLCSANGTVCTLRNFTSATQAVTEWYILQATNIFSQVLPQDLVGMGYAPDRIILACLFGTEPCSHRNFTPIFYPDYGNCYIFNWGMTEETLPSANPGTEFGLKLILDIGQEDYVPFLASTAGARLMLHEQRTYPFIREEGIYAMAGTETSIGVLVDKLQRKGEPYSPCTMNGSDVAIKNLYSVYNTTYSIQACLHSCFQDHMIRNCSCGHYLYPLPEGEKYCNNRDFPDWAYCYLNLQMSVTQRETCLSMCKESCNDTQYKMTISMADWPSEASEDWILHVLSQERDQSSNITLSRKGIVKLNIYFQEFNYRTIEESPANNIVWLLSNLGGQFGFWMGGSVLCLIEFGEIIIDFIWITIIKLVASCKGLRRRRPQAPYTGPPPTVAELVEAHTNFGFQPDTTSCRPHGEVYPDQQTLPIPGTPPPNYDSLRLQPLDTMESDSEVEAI
T1 sequence (Q9WU39 1-655): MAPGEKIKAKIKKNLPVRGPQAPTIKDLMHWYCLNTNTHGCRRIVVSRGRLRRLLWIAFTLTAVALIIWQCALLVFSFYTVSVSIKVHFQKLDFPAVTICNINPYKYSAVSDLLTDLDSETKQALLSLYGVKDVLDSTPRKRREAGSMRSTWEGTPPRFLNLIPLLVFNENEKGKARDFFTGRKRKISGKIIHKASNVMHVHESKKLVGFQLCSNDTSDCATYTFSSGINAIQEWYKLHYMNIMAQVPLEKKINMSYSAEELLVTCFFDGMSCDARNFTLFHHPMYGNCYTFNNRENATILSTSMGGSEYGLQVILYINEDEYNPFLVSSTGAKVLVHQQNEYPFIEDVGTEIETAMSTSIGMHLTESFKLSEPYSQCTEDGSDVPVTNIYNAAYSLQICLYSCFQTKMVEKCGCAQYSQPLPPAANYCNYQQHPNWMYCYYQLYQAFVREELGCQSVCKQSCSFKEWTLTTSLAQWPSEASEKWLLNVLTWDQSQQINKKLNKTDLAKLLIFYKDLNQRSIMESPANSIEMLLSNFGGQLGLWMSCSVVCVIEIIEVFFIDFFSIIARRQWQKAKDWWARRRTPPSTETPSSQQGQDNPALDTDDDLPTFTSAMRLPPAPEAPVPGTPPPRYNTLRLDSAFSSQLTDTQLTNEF
Experimental: The IC50 values of the example compounds given above were determined in the Ussing Chamber assay.
Ussing Chamber: Mouse kidney M-1 cells were cultivated in DMEM containing 5% FCS and 5 μM dexamethasone for 10 to 12 days on polyester transwell filters. Filters were inserted into a teflon-coated well-plate which fit into the ussing chamber system. Prior to measurement the medium of M-1 cells was replaced with Caco-2 transport buffer (Invitrogen, Germany). During measurements, the Ussing chamber temperature was kept at 37° C. Short circuit currents (I_sc) were measured in the voltage-clamp mode with the software package Lab View for data acquisition and analysis. The transepithelial electrical resistance (TEER) was determined by the application of voltage steps of ±5 mV every 5 sec. Compounds were administered at a final concentration of 3 μM or at increasing concentrations (1-3-10 μM) to the apical solution. At the end of each experiment the amiloride sensitive I_SC was measured by adding 3 μM amiloride to the apical compartment. Results are expressed as inhibition in percent of the amiloride effect or as IC50.

| SMILES | IC50 |
| --- | --- |
| CC[n+]1c(CNC(=O)c2nc(Cl)c(N)nc2N)n(CC2CCCCC2)c2cc(OCC[n+]3cccc(O)c3)ccc21 [Example 1.03] | 5 nM |
| CC[n+]1c(CNC(=O)c2nc(Cl)c(N)nc2N)n(CCO)c2cc(OCC(=O)NC3CCN(C(C)=O)CC3)ccc21 [Example 1.04] | 2 nM |
| CCCCCC(=O)N(CCOc1ccc2c(c1)n(C[C@H](C)O)c(CNC(=O)c1nc(Cl)c(N)nc1N)[n+]2CC)CP(C)(C)=O [Example 1.06] | 2 nM |
| CCCn1c(CNC(=O)c2nc(Cl)c(N)nc2N)[n+](C)c2ccc(OCC(=O)N(C)Cc3nc(C)ccc3O)cc21 [Example 1.07] | 3 nM |
| CCOc1cc2c(cc1C(=O)N1CCN(C(=O)OC(C)(C)C)CC1)[n+](CC)c(CNC(=O)c1nc(Cl)c(N)nc1N)n2CC [Example 1.09] | 7 nM |
| CCCCCOc1cc2c(cc1C(=O)N1CCN(C(=O)OC(C)(C)C)CC1)[n+](CC)c(CNC(=O)c1nc(Cl)c(N)nc1N)n2C[C@H](C)O [Example 1.10] | 52 nM |
| CCNC(=O)c1cc2c(cc1OCC(=O)OC(C)(C)C)n(CC)c(CNC(=O)c1nc(Cl)c(N)nc1N)[n+]2CC [Example 1.11] | 10 nM |
| CCn1c(CNC(=O)c2nc(Cl)c(N)nc2N)[n+](CC)c2cc(C(=O)NC3CCN(C(=O)OC(C)(C)C)CC3)c(OCC(=O)OC(C)(C)C)cc21 [Example 1.13] | 9 nM |
| CCn1c(CNC(=O)c2nc(Cl)c(N)nc2N)[n+](CCO)c2cc(OCC(=O)N3CCN(C(C)=O)CC3)ccc21 [Example 1.14] | 3 nM |
| CCCCCCN(C)C(=O)c1cc2c(cc1N1C[C@H](O)[C@@H](O)C1)n(CCO)c(CNC(=O)c1nc(Cl)c(N)nc1N)[n+]2CC [Example 1.16] | 11 nM |
| CCCn1c(CNC(=O)c2nc(Br)c(N)nc2N)[n+](C)c2ccc(OCC(=O)N(C)Cc3nc(C)ccc3O)cc21 [Example 2.01] | 1 nM |
| CCn1c(CNC(=O)c2nc(Cl)c(N)nc2N)[n+](CC)c2ccc(OCC(=O)N(C)Cc3nc(C)ccc3[O-])cc21 [Example 3.02] | 0.4 nM |
| CCn1c(CNC(=O)c2nc(Cl)c(N)nc2N)[n+](CC)c2ccc(OCC(=O)Nc3cncc([O-])c3)cc21 [Example 3.03] | 0.3 nM |
| CCCCCCN1CCC(NC(=O)COc2ccc3c(c2)n(CC)c(CNC(=O)c2nc(Cl)c(N)nc2N)[n+]3CC)CC1 [Example 3.04] | 0.6 nM |
| CCn1c(CNC(=O)c2nc(Cl)c(N)nc2N)[n+](CC)c2cc(F)c(C(=O)NCCCN(C)C)cc21 [Example 3.07] | 1 nM |
| CCn1c(CNC(=O)c2nc(Cl)c(N)nc2N)[n+](CC)c2ccc(C(=O)NCCNC(C)=O)cc21 [Example 3.08] | 0.4 nM |
| CCN1CCC(NC(=O)COc2ccc3c(c2)n(CC)c(CNC(=O)c2nc(Cl)c(N)nc2N)[n+]3CC)CC1 [Example 3.09] | 0.2 nM |
| CCNC(=O)CN1CCC(NC(=O)c2cc3c(cc2F)[n+](CC)c(CNC(=O)c2nc(Cl)c(N)nc2N)n3CC)CC1 [Example 3.10] | 1 nM |
| CCn1c(CNC(=O)c2nc(Cl)c(N)nc2N)[n+](CC)c2ccc(OCC(=O)Nc3cncc(OCc4ccccc4)c3)cc21 [Example 3.13] | 2 nM |
| CCn1c(CNC(=O)c2nc(Cl)c(N)nc2N)[n+](CC)c2ccc(C(=O)NCCNS(C)(=O)=O)cc21 [Example 3.14] | 0.4 nM |

| SMILES | IC50 |
| --- | --- |
| CCn1c(CNC(=O)c2nc(Cl)c(N)nc2N)[n+](CC)c2cc(C(=O)N3CCN(C(=O)N4CCOCC4)CC3)c(F)cc21 [Example 3.15] | 1 nM |
| CCNC(=O)c1cc2c(cc1OCC(=O)NC1CCN(C)CC1)n(CC)c(CNC(=O)c1nc(Cl)c(N)nc1N)[n+]2CC [Example 3.18] | 4 nM |
| CCNC(=O)c1cc2c(cc1OCC(=O)NC1CCN(C(=O)OC(C)(C)C)CC1)n(CC)c(CNC(=O)c1nc(Cl)c(N)nc1N)[n+]2CC [Example 3.19] | 9 nM |
| CCCCCCN1CCC(NC(=O)COc2cc3c(cc2C(=O)NCC)[n+](CC)c(CNC(=O)c2nc(Cl)c(N)nc2N)n3CC)CC1 [Example 3.20] | 15 nM |
| CCNC(=O)c1cc2c(cc1OCC(=O)NCCOC)n(CC)c(CNC(=O)c1nc(Cl)c(N)nc1N)[n+]2CC [Example 3.21] | 9 nM |
| CCn1c(CNC(=O)c2nc(Cl)c(N)nc2N)[n+](CC)c2cc(C(=O)NC3CCNCC3)c(OCC(=O)NC3CCN(C)CC3)cc21 [Example 3.22] | 10 nM |
| CCNC(=O)COc1cc2c(cc1C(=O)NC1CCN(C(=O)OC(C)(C)C)CC1)[n+](CC)c(CNC(=O)c1nc(Cl)c(N)nc1N)n2CC [Example 3.23] | 8 nM |
| CCn1c(CNC(=O)c2nc(Cl)c(N)nc2N)[n+](CC)c2ccc(OCC(=O)NC3CCNCC3)cc21 [Example 3.24] | 0.1 nM |
| CCn1c(CNC(=O)c2nc(Cl)c(N)nc2N)[n+](CC)c2ccc(OCC(=O)NCCN)cc21 [Example 3.25] | 1 nM |
| CCn1c(CNC(=O)c2nc(Cl)c(N)nc2N)[n+](CC)c2ccc(OCCNC(=O)CN3CCOCC3)cc21 [Example 4.02] | 2 nM |
| CCn1c(CNC(=O)c2nc(Cl)c(N)nc2N)[n+](CC)c2ccc(CNC(=O)Cc3ncccc3O)cc21 [Example 4.03] | 0.4 nM |
| CCN(CC)CC(=O)NCCOc1ccc2c(c1)n(CC)c(CNC(=O)c1nc(Cl)c(N)nc1N)[n+]2CC [Example 4.04] | 1 nM |
| CCn1c(CNC(=O)c2nc(Cl)c(N)nc2N)[n+](CC)c2ccc(OCCNC(=O)CN3CCN(C)CC3)cc21 [Example 4.05] | 0.4 nM |
| CCn1c(CNC(=O)c2nc(Cl)c(N)nc2N)[n+](CC)c2ccc(OCCNC(=O)C3CCCN3C)cc21 (stereo not shown) [Example 4.06] | 0.3 nM |
| CCn1c(CNC(=O)c2nc(Cl)c(N)nc2N)[n+](CC)c2ccc(OCCNC(=O)CN3CCCC3)cc21 [Example 4.07] | 1 nM |
| CCn1c(CNC(=O)c2nc(Cl)c(N)nc2N)[n+](CC)c2ccc(OCCNC(=O)[C@H](C)N(C)C(=O)OC(C)(C)C)cc21 [Example 4.08] | 2 nM |
| CCn1c(CNC(=O)c2nc(Cl)c(N)nc2N)[n+](CC)c2ccc(OCCNC(=O)CN3CCC(NC(=O)OC(C)(C)C)CC3)cc21 [Example 4.10] | 1 nM |
| CCn1c(CNC(=O)c2nc(Cl)c(N)nc2N)[n+](CC)c2ccc(OCCNC(=O)C3CCCN3C(=O)OC(C)(C)C)cc21 (stereo not shown) [Example 4.11] | 2 nM |
| CCOc1cc2c(cc1C(=O)N1CCN(C(=O)Cc3ccccn3)CC1)[n+](CC)c(CNC(=O)c1nc(Cl)c(N)nc1N)n2CC [Example 4.12] | 2 nM |
| CCNC(=O)COc1cc2c(cc1C(=O)NC1CCN(C(C)=O)CC1)[n+](CC)c(CNC(=O)c1nc(Cl)c(N)nc1N)n2CC [Example 4.13] | 4 nM |
